Reference: BindingDB's records for doi:10.1074/jbc.M501100200 (University of Texas Southwestern Medical Center, 2005)

Tests used:
Test in all cases: DHODH Inhibition Assay
[1] = target: T1, Dihydroorotate dehydrogenase (quinone), mitochondrial [30-395] (Homo sapiens, UniProt Q02127)
T1 construct: 30-395
Experimental: (§1) The assays were carried out by using a colorimetric DCIP method, which uses the colorimetric reagent 2, 6-dichlorophenolindophenol as the final electron acceptor. DCIP reduction is stoichiometrically equivalent to oxidation of dihydroorotate. Changes in absorbance were quantified on a plate reader and data were analyzed to measure the reduction of DCIP as a decrease in absorbance at 600 nm. For the determination of the IC50 values (concentration of inhibitor required for 50% inhibition) different inhibitor concentrations were applied.

[2] = target: T2, Dihydroorotate dehydrogenase (quinone), mitochondrial (Plasmodium falciparum, UniProt Q54A96); details: pH 8; 22 °C
T2 sequence (Q54A96 whole entry): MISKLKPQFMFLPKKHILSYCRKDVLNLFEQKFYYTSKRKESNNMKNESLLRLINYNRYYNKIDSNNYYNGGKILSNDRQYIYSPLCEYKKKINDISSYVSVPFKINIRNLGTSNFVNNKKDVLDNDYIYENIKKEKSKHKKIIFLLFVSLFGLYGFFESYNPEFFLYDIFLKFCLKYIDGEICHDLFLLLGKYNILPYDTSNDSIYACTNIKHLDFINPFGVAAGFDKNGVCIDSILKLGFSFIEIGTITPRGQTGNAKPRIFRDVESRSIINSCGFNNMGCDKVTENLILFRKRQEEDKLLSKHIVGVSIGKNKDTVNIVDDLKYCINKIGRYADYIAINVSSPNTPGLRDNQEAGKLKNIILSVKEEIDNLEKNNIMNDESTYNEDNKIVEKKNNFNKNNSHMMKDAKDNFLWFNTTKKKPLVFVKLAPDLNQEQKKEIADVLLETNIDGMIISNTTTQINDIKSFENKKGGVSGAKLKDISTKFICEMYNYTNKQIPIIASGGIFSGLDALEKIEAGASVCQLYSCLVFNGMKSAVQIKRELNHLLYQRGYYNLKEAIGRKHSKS
Experimental: as §1

[3] = target: Dihydroorotate dehydrogenase (quinone), mitochondrial [H185A] (Plasmodium falciparum, UniProt Q54A96, H185A)
Dihydroorotate dehydrogenase (quinone), mitochondrial [H185A], sequence (Q54A96 whole entry H185A): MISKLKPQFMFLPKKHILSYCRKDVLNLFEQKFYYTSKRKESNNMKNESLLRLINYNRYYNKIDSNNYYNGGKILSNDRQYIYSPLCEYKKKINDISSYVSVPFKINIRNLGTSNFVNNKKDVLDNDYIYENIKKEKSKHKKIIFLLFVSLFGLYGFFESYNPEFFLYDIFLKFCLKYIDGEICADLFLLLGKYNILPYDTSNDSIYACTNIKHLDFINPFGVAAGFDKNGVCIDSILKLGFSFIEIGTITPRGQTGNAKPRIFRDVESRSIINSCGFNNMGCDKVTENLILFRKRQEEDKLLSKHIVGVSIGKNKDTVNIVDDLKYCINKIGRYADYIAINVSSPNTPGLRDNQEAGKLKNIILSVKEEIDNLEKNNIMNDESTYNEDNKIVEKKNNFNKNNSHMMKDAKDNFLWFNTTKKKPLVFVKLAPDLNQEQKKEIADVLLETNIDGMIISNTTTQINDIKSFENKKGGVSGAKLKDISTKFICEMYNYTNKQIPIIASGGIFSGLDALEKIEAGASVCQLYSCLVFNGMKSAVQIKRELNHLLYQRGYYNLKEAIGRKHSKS
Experimental: as §1

[4] = target: Dihydroorotate dehydrogenase (quinone), mitochondrial [R265A] (Plasmodium falciparum, UniProt Q54A96, R265A)
Dihydroorotate dehydrogenase (quinone), mitochondrial [R265A], sequence (Q54A96 whole entry R265A): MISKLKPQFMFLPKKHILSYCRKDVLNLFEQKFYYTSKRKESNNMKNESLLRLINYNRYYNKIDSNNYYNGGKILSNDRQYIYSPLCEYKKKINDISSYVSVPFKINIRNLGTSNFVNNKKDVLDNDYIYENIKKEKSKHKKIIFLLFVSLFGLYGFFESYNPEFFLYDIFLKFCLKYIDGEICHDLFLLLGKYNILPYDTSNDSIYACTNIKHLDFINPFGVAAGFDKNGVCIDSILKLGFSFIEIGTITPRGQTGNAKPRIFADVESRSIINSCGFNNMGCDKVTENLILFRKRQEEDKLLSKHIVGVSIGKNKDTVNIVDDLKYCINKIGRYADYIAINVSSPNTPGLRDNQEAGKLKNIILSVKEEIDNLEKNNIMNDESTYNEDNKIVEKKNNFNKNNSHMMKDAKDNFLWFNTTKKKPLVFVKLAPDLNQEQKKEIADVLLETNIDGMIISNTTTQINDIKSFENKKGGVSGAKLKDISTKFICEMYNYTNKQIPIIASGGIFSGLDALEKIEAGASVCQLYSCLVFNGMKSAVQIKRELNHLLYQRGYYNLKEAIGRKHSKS
Experimental: as §1

T1 sequence (Q02127 30-395): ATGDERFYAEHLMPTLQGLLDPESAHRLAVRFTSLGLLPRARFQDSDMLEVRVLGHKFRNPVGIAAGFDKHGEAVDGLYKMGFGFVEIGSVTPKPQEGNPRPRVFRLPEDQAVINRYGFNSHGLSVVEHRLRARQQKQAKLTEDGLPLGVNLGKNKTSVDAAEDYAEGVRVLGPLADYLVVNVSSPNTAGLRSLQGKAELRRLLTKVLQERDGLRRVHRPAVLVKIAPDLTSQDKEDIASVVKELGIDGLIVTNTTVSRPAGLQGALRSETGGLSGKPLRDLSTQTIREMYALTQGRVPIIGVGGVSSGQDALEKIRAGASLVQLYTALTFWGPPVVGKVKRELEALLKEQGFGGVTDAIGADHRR

Compound	IC50 [1]	IC50 [2]	IC50 [3]	IC50 [4]
O=C(Nc1ccccc1C(F)(F)F)Nc1cccc2ccccc12 [1-naphthalen-1-yl-3-[2-(trifluoromethyl)phenyl]urea]	> 1000 µM	400 nM	> 200 µM	340 nM
Cc1c(C(=O)Nc2cccc(C(F)(F)F)c2)cccc1[N+](=O)[O-] [2-methyl-3-nitro-N-[3-(trifluoromethyl)phenyl]benzamide]	150 µM	80 nM	120 µM	370 nM
Cc1c(C(=O)Nc2cccc3ccccc23)cccc1[N+](=O)[O-] [2-methyl-N-(naphthalen-1-yl)-3-nitrobenzamide]	100 µM	80 nM	180 µM	480 nM
COc1ccccc1NC(=O)Nc1cccc2ccccc12 [3-(2-methoxyphenyl)-1-naphthalen-1-ylurea]	112 µM	230 nM	140 µM	240 nM
O=C(Nc1ccc(Cl)cc1)Nc1cccc2cccnc12 [3-(4-chlorophenyl)-1-quinolin-8-ylurea]	116 µM	780 nM	> 400 µM	2000 nM
Cc1c(C(=O)Nc2cc(Cl)cc(Cl)c2)cccc1[N+](=O)[O-] [Asinex compound no. 6]	200 µM	16 nM	130 µM	400 nM
Cc1cc(Br)ccc1NC(=O)c1ccc2ccccc2c1 [ChemBridge compound no. 2]	210 µM	50 nM	570 µM	50 nM
O=C(Nc1ccc(Cl)cc1Cl)c1ccc2ccccc2c1 [N-(2,4-dichlorophenyl)naphthalene-2-carboxamide]	> 50 µM	50 nM	> 50 µM	80 nM
O=C(Nc1ccccc1F)c1ccc2ccccc2c1 [N-(2-fluorophenyl)naphthalene-2-carboxamide]	34 µM	470 nM	210 µM	300 nM
Cc1c(C(=O)Nc2ccc(Cl)c(Cl)c2)cccc1[N+](=O)[O-] [N-(3,4-dichlorophenyl)-2-methyl-3-nitrobenzamide]	72 µM	80 nM	60 µM	2800 nM
Cc1c(C(=O)Nc2ccc(F)c(F)c2)cccc1[N+](=O)[O-] [N-(3,4-difluorophenyl)-2-methyl-3-nitrobenzamide]	200 µM	260 nM	250 µM	820 nM
Cc1c(C(=O)Nc2cccc(Br)c2)cccc1[N+](=O)[O-] [N-(3-bromophenyl)-2-methyl-3-nitrobenzamide]	105 µM	60 nM	140 µM	1200 nM
Cc1c(C(=O)Nc2ccc(F)c(Cl)c2)cccc1[N+](=O)[O-] [N-(3-chloro-4-fluorophenyl)-2-methyl-3-nitrobenzamide]	116 µM	100 nM	130 µM	500 nM
